According to US20220304957A1, “ANTI-CANCER COMPOSITIONS AND METHODS OF USE” (Board of Supervisors of Louisiana State University and …, priority 2019, published 2022):
Read-outs that look alike come from different tables or passages of the source.

How the values were obtained:
Water solubility (HPLC) = type: physicochemical; conditions: room temperature, sonicated one hour
Procedure: Aliquots of 50 μM PP1 and FF in DMSO were added to 500 μl to heparinized human blood to a final concentration of 50 μM. Following incubation at 37° C. for the indicated time points, the samples were frozen at −80° C., and later prepared for HPLC-based detection of the compounds. Please note that FF is converted to FA in the presence of human blood. […] Data represent average values with standard deviation (n=3). panel B: Water solubility. FF and PP1, were added to water to a final concentration of 50 mM and sonicated in an ultrasonic bath (Branson 1510 Digital Heated Ultrasonic bath) for one hour at room temperature. The samples were then centrifuged for 10 minutes at 16000×g, and the supernatant filtered through 0.45 μm syringe filter. Water solubilized PP1 and FF were subsequently processed for HPLC analysis (see Methods). Data represent average values with standard deviation (n=3). panel C: Effects of PP compounds on PPAR responsive elements (PPRE). The PPAR transcriptional activity was determined in HepG2 cells by the JsTkpGL3 reporter plasmid, which contains a firefly luciferase gene driven by the PPRE, which consists of three copies of the J site from the apo-AII gene promoter. […] The luciferase activity was detected with Dual-Luciferase reporter assay system (Promega, Madison, Wis.), and the resulting luminescence measured with Synergy 2 microplate reader (BioTek, Winooski, Vt.). […]

[1] = Toxicity in mice: body weight and histopathology; type: in vivo, C57BL/6 mice; conditions: 14 days
Procedure: Panel A: PP1 accumulation in different tissues following oral administration of PP1 (25 mg/kg). C57BL/6 mice were treated daily for 14 days, and the levels of PP1 in the blood, liver, spleen, kidney, heart, brain and in brain tumors, were evaluated by HPLC, as previously described. Data represent average values with standard deviation (n=3). Panel B: Body weight of C57BL/6 mice treated with PP1. Mice were treated with the PP1 at doses ranging from 25 to 75 mg/kg/day administered by oral gavage. Following 7 and 14 days of daily drug administration both control (DMSO-treated) and experimental (PP1-treated) mice were weighted. Data represent average values with standard deviation (at least three mice per group were included). In Panels A and B, tumor free and tumor bearing mice were included for the body weight measurement. Panels C, D and E: Intracranial growth of GL-261-Luc cells. C57 black mice, 6-8 weeks of age were anesthetized with 4% isoflurane and secured in a stereotaxic head frame (Harvard Apparatus, Holliston Mass.). GL-261-luc cells (1×10^5 cells in 2 μl; PerkinElmer Inc.) were injected into the brain parenchyma (coordinates: 3 mm anterior to Bregma; 1.5 mm lateral to Sagital suture; 3 mm down from surface) through a burr hole in the skull using a 10 μl Hamilton syringe. Panel C: Mice with large intracranial tumors were selected using bioluminescence imaging with Xenogen IVIS 200 system. Tumor size is expressed as radiance (photons/s/cm2/sr) and was quantified with the Living Image 4.1 software according to the manufacturer's recommendations (Xenogen). Panels D and E: Pathological evaluation of intracranial tumors and tissues. Following 14 days of drug administration (control: DMSO administered daily by oral gavage; PP1 50 mg/kg administered daily by oral gavage) the animals were euthanized, and the following organs were collected: liver, kidneys, spleen, heart, intact brain and intracranial tumors. The tissues were formalin-fixed, paraffin-embedded, and the resulting thin section were stained with hematoxylin and eosin (H&E) for a routine pathological evaluation.
Animal studies—All described procedures involving experimental animals were performed in accordance to the IACUC protocol #3444 at LSUHSC, New Orleans. C57BL/6NHsd mice, 11-12 weeks of age (Envigo), were anesthetized with 4% isoflurane and secured in a stereotaxic head frame (Harvard Apparatus, Holliston Mass.). […] The resulting images were evaluated and luminescence measurements from equivalent regions of interest encompassing the entire skull were collected using Living Image 4.1 software (Xenogen). […]

[2] = tested on: LN-229 human glioblastoma cells; conditions: for % cell death: 72-/96-hour time points

In the case of `CN(CCO)C(=O)C(C)(C)Oc1ccc(C(=O)c2ccc(Cl)cc2)cc1` [PP1, 2-[4-(4-chlorobenzoyl)phenoxy]-N-(2-hydroxyethyl)-N,2-dimethylpropanamide], the “water solubility in comparison to FF” value (Water solubility (HPLC)) was “much better soluble in water”, the “overall toxicity and body weight” value ([1]; 25-75 mg/kg/day oral gavage, tumor-free and tumor bearing mice) was “did not show any signs of overall toxicity and maintained their body weight” and the “histology, heart, kidney and intact brain” value ([1]; oral gavage daily) was “did not show any signs of pathology”. The “histology, liver” value ([1]; oral gavage daily) was “inflammation and focal necrotic areas in the liver”, the “histology, spleen” value ([1]; oral gavage daily) was “enlarged spleen with accumulation of hemosiderin” and the “% cell death” value ([2]; 5 μM) was 74+/−3%. The “% cell death” value ([2]; 10 μM) was 92+/−2%, the “cell death” value ([2]; 25 and 50 μM, 72- and 96-hour time points) was “extensive cell death” and the “concentration triggering extensive glioblastoma cell death, fold lower than FF” value ([2]; in vitro) was ~5 fold.
